Paper PMC4457932, “Characterization of Spirometra erinaceieuropaei Plerocercoid Cysteine Protease and Potential Application for Serodiagnosis of Sparganosis” (PLoS Neglected Tropical Diseases, 2015)
Residues, ends and D or L forms follow the SMILES beside them. *: point of attachment. AMC = Cc1cc(=O)oc2cc(N*)ccc12; Cbz = O=C(OCc1ccccc1)*

Experiments:
[1] = target: T1, rSeCP (Spirometra erinaceieuropaei, UniProt O02586); assay: fluorogenic peptidase assay, Z-Phe-Arg-AMC; assay type: biochemical
T1 construct: MBP fusion (pMAL-c2X, E. coli TB1), 19-residue signal peptide omitted, proform 36 kDa plus MBP 43 kDa, 79 kDa, tag kept; full-length ORF 336 residues
T1 sequence (O02586 entry or part of it): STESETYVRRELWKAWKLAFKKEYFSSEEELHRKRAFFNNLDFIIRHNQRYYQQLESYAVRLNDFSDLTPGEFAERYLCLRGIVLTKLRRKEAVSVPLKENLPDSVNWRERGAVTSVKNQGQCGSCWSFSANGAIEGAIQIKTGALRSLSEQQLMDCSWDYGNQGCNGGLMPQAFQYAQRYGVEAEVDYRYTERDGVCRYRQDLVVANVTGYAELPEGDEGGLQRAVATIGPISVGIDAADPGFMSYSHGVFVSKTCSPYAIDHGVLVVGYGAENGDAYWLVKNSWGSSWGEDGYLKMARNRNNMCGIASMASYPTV
Description: fluorogenic peptidase assay, Z-Phe-Arg-AMC on rSeCP

[2] = target: T1, rSeCP; assay: AMC fluorescence, […] nm; assay type: biochemical; conditions: 3 μM substrate, 100 mM sodium acetate, 5 mM DTT, pH 5.5, 37°C

SMILES	activity at 5 µM [1] [%]	AMC fluorescence, 355/460 nm [2]
CC(C)C[C@H](NC(=O)[C@H]1O[C@@H]1C(=O)O)C(=O)NCCCCN=C(N)N [E-64, L-trans-epoxysuccinyl-leucylamide (4-guanidino) butane]	0.8	
Cc1cc(=O)oc2cc(NC(=O)[C@H](CCCNC(=N)N)NC(=O)[C@H](Cc3ccccc3)NC(=O)OCc3ccccc3)ccc12 [Z-Phe-Arg-AMC, Z-carbobenzoxy-L-phenylalanyl-L-arginine-(7-amino-4-methylcoumarin)] (Cbz-Phe-Arg-{AMC})		determined by cleavage of the fluorescent substrate Z-carbobenzoxy-L-phenylalanyl-L-arginine-(7-amino-4-methylcoumarin) (Z-Phe-Arg-AMC, Sigma)
